Reference: publication PMC11224111, “Optimizing the pharmacokinetics of an ^211At-labeled RGD peptide with an albumin-binding moiety via the administration of an albumin-binding inhibitor” (European Journal of Nuclear Medicine and Molecular Imaging, 2024)
Several values for one entry are separate records, joined by “and”; a condition that tells them apart may be missing. Equal values may be shown once.

Tested on: U-87 MG tumor-bearing mice
Experiment: Biodistribution in U-87 MG tumor-bearing mice with IPBA
Format: in vivo
Conditions: IPBA 10 eq at 1 h postinjection
Protocol: To prepare tumor-bearing mice, 5 × 10^6 of U-87 MG cells were subcutaneously inoculated into the right shoulder of 4-week-old female BALB/c nude mice (13–15 g, Japan SLC, Inc.) as previously reported. At approximately 10-day postinoculation of U-87 MG cells, they were used for each experiment after tumor size reached 0.3–0.5 cm^3.
At 1-h postinjection of [^211At]1 (37 kBq) and [^125I]2 (37 kBq), IPBA (1.9 mg, 6.1 µmol) was administered at 10 molar equivalent of blood albumin. Mice were sacrificed at 65-, 70-min, 2-, 4-, 12-, and 24-h postinjection of [^211At]1 and [^125I]2. Tissues of interest were removed and weighed, and radioactivity counts of ^125I and ^211At were determined with an auto well gamma counter (ARC-7010; Hitachi Medical, Ltd., Tokyo, Japan) and corrected for background radiation. To determine the radioactivity excreted from the body for 24 h, mice were housed in metabolic cages (Metabolica, Sugiyama-Gen Co., Ltd., Tokyo, Japan).

Substance: Ga-DOTA-K([^211At]APBA)-c(RGDfK) [[^211At]1]
- Radioactivity, Blood (65 min after administration): 13.96 (0.18) % injected activity per gram
- Radioactivity, Bone (65 min after administration): 4.07 (0.26) % injected activity per gram
- Radioactivity, Brain (65 min after administration): 0.36 (0.00) % injected activity per gram
- Radioactivity, Heart (65 min after administration): 5.28 (0.29) % injected activity per gram
- Radioactivity, Kidney (65 min after administration): 16.15 (1.45) % injected activity per gram
- Radioactivity, L. intestine (65 min after administration): 3.05 (0.10) % injected activity per gram
- Radioactivity, Liver (65 min after administration): 5.20 (0.50) % injected activity per gram
- Radioactivity, Lung (65 min after administration): 10.81 (0.60) % injected activity per gram
- Radioactivity, Muscle (65 min after administration): 2.80 (0.39) % injected activity per gram
- Radioactivity, Neck (65 min after administration): 0.04 (0.02) % injected activity
- Radioactivity, Pancreas (65 min after administration): 2.82 (0.16) % injected activity per gram
- Radioactivity, S. intestine (65 min after administration): 4.69 (0.26) % injected activity per gram
- Radioactivity, Spleen (65 min after administration): 4.06 (0.21) % injected activity per gram
- Radioactivity, Stomach (65 min after administration): 1.12 (0.28) % injected activity
- Radioactivity, Tumor (65 min after administration): 10.92 (0.34) % injected activity per gram
- Radioactivity, Blood (70 min after administration): 9.85 (0.55) % injected activity per gram
- Radioactivity, Bone (70 min after administration): 2.22 (0.60) % injected activity per gram
- Radioactivity, Brain (70 min after administration): 0.26 (0.02) % injected activity per gram
- Radioactivity, Heart (70 min after administration): 3.66 (0.27) % injected activity per gram
- Radioactivity, Kidney (70 min after administration): 11.02 (1.44) % injected activity per gram
- Radioactivity, L. intestine (70 min after administration): 2.25 (0.27) % injected activity per gram
- Radioactivity, Liver (70 min after administration): 3.72 (0.52) % injected activity per gram
- Radioactivity, Lung (70 min after administration): 7.40 (0.85) % injected activity per gram
- Radioactivity, Muscle (70 min after administration): 1.60 (0.16) % injected activity per gram
- Radioactivity, Neck (70 min after administration): 0.05 (0.00) % injected activity
- Radioactivity, Pancreas (70 min after administration): 1.95 (0.14) % injected activity per gram
- Radioactivity, S. intestine (70 min after administration): 3.61 (0.36) % injected activity per gram
- Radioactivity, Spleen (70 min after administration): 2.77 (0.39) % injected activity per gram
- Radioactivity, Stomach (70 min after administration): 0.78 (0.17) % injected activity
- Radioactivity, Tumor (70 min after administration): 10.79 (1.09) % injected activity per gram
- Radioactivity, Blood (2 h after administration): 8.06 (0.39) % injected activity per gram
- Radioactivity, Bone (2 h after administration): 3.04 (0.30) % injected activity per gram
- Radioactivity, Heart (2 h after administration): 2.86 (0.31) % injected activity per gram
- Radioactivity, Kidney (2 h after administration): 8.22 (0.51) % injected activity per gram
- Radioactivity, L. intestine (2 h after administration): 2.35 (0.97) % injected activity per gram
- Radioactivity, Liver (2 h after administration): 2.45 (0.21) % injected activity per gram
- Radioactivity, Lung (2 h after administration): 5.67 (0.59) % injected activity per gram
- Radioactivity, Muscle (2 h after administration): 1.96 (0.68) % injected activity per gram
- Radioactivity, Neck (2 h after administration): 0.04 (0.02) % injected activity
- Radioactivity, Pancreas (2 h after administration): 1.64 (0.14) % injected activity per gram
- Radioactivity, S. intestine (2 h after administration): 2.42 (0.70) % injected activity per gram
- Radioactivity, Spleen (2 h after administration): 2.34 (0.18) % injected activity per gram
- Radioactivity, Stomach (2 h after administration): 0.81 (0.05) % injected activity
- Radioactivity, Tumor (2 h after administration): 13.38 (1.48) % injected activity per gram
- Radioactivity, Blood (4 h after administration): 3.04 (0.26) % injected activity per gram
- Radioactivity, Bone (4 h after administration): 1.60 (0.14) % injected activity per gram
- Radioactivity, Brain (4 h after administration): 0.18 (0.02) % injected activity per gram
- Radioactivity, Heart (4 h after administration): 1.44 (0.10) % injected activity per gram
- Radioactivity, Kidney (4 h after administration): 5.32 (0.35) % injected activity per gram
- Radioactivity, L. intestine (4 h after administration): 4.03 (1.33) % injected activity per gram
- Radioactivity, Liver (4 h after administration): 1.34 (0.05) % injected activity per gram
- Radioactivity, Lung (4 h after administration): 3.34 (0.11) % injected activity per gram
- Radioactivity, Muscle (4 h after administration): 0.61 (0.01) % injected activity per gram
- Radioactivity, Neck (4 h after administration): 0.02 (0.00) % injected activity
- Radioactivity, Pancreas (4 h after administration): 0.93 (0.26) % injected activity per gram
- Radioactivity, S. intestine (4 h after administration): 3.03 (0.65) % injected activity per gram
- Radioactivity, Spleen (4 h after administration): 2.18 (0.13) % injected activity per gram
- Radioactivity, Stomach (4 h after administration): 0.75 (0.01) % injected activity
- Radioactivity, Tumor (4 h after administration): 12.48 (0.95) % injected activity per gram
- Radioactivity, Blood (12 h after administration): 2.71 (0.21) % injected activity per gram
- Radioactivity, Bone (12 h after administration): 1.10 (0.24) % injected activity per gram
- Radioactivity, Brain (12 h after administration): 0.12 (0.01) % injected activity per gram
- Radioactivity, Heart (12 h after administration): 1.49 (0.11) % injected activity per gram
- Radioactivity, Kidney (12 h after administration): 3.12 (0.14) % injected activity per gram
- Radioactivity, L. intestine (12 h after administration): 0.89 (0.06) % injected activity per gram
- Radioactivity, Liver (12 h after administration): 1.04 (0.12) % injected activity per gram
- Radioactivity, Lung (12 h after administration): 3.50 (0.28) % injected activity per gram
- Radioactivity, Muscle (12 h after administration): 0.54 (0.02) % injected activity per gram
- Radioactivity, Neck (12 h after administration): 0.09 (0.03) % injected activity
- Radioactivity, Pancreas (12 h after administration): 0.92 (0.08) % injected activity per gram
- Radioactivity, S. intestine (12 h after administration): 1.01 (0.14) % injected activity per gram
- Radioactivity, Spleen (12 h after administration): 1.41 (0.12) % injected activity per gram
- Radioactivity, Stomach (12 h after administration): 0.72 (0.09) % injected activity
- Radioactivity, Tumor (12 h after administration): 7.73 (0.76) % injected activity per gram
- Radioactivity, Blood (24 h after administration): 2.21 (0.38) % injected activity per gram
- Radioactivity, Bone (24 h after administration): 0.64 (0.16) % injected activity per gram
- Radioactivity, Brain (24 h after administration): 0.26 (0.31) % injected activity per gram
- Radioactivity, Heart (24 h after administration): 0.90 (0.31) % injected activity per gram
- Radioactivity, Kidney (24 h after administration): 1.91 (0.38) % injected activity per gram
- Radioactivity, L. intestine (24 h after administration): 0.41 (0.24) % injected activity per gram
- Radioactivity, Liver (24 h after administration): 0.73 (0.17) % injected activity per gram
- Radioactivity, Lung (24 h after administration): 2.31 (0.34) % injected activity per gram
- Radioactivity, Muscle (24 h after administration): 0.32 (0.07) % injected activity per gram
- Radioactivity, Neck (24 h after administration): 0.04 (0.01) % injected activity
- Radioactivity, Pancreas (24 h after administration): 0.41 (0.12) % injected activity per gram
- Radioactivity, S. intestine (24 h after administration): 0.46 (0.22) % injected activity per gram
- Radioactivity, Spleen (24 h after administration): 1.22 (0.27) % injected activity per gram
- Radioactivity, Stomach (24 h after administration): 0.61 (0.18) % injected activity
- Radioactivity, Tumor (24 h after administration): 6.15 ± 0.20 % injected activity per gram and 6.15 (0.20) % injected activity per gram
- Radioactivity excreted, Feces (until 24 h postinjection): 4.09 ± 1.69 % injected activity and 4.09 (1.69) % injected activity
- Radioactivity excreted, Urine (until 24 h postinjection): 38.98 ± 5.39 % injected activity and 38.98 (5.39) % injected activity
